Experimental data published in publication PMC4839570, “Novel Anthra[1,2-c][1,2,5]Thiadiazole-6,11-Diones as Promising Anticancer Lead Compounds: Biological Evaluation, Characterization & Molecular Targets Determination” (PLoS ONE, 2016).
Read-outs that look alike come from different tables or passages of the source.

Legend:
[1] = system: MALME-3M; assay: NCI-60 cytotoxicity screen; type: cell-based
[2] = system: DU-145; assay: JFCR-39 cytotoxicity screen; type: cell-based
[3] = system: OVCAR-5; assay: NCI-60 cytotoxicity screen; type: cell-based
[4] = system: HCT-116; assay: NCI-60 cytotoxicity screen; type: cell-based
[5] = system: NCI-H460; assay: JFCR-39 cytotoxicity screen; type: cell-based
[6] = system: NCI-H23; assay: JFCR-39 cytotoxicity screen; type: cell-based
[7] = system: SK-MEL-28; assay: NCI-60 cytotoxicity screen; type: cell-based
[8] = system: M14; assay: NCI-60 cytotoxicity screen; type: cell-based
[9] = system: SF-295; assay: JFCR-39 cytotoxicity screen; type: cell-based
[10] = system: HCC-2998; assay: NCI-60 cytotoxicity screen; type: cell-based
[11] = system: KM-12; assay: JFCR-39 cytotoxicity screen; type: cell-based
[12] = system: OVCAR-8; assay: JFCR-39 cytotoxicity screen; type: cell-based
[13] = system: RPMI-8226; assay: NCI-60 cytotoxicity screen; type: cell-based
[14] = system: SNB-75; assay: NCI-60 cytotoxicity screen; type: cell-based
[15] = system: RXF-631L; assay: JFCR-39 cytotoxicity screen; type: cell-based
[16] = system: OVCAR-3; conditions: JFCR
[17] = system: UACC-257; assay: NCI-60 cytotoxicity screen; type: cell-based
[18] = system: SF-539; assay: JFCR-39 cytotoxicity screen; type: cell-based
[19] = system: LOX-IMVI; assay: JFCR-39 cytotoxicity screen; type: cell-based
[20] = system: SW-620; assay: NCI-60 cytotoxicity screen; type: cell-based
[21] = system: U251; assay: NCI-60 cytotoxicity screen; type: cell-based
[22] = system: CAKI-1; assay: NCI-60 cytotoxicity screen; type: cell-based
[23] = system: MDA-MB-468; assay: NCI-60 cytotoxicity screen; conditions: Homo sapiens, MDA-MB-468, read-out: mean log10 of the GI50 values (converted)
[24] = system: T-47D; assay: NCI-60 cytotoxicity screen; type: cell-based
[25] = system: NF-κB p65 subunit in OVCAR-3 cells; assay: Western blotting of nuclear and cytosolic fractions; type: cell-based, human; conditions: OVCAR-3 nuclear fraction
Protocol: Treated cells were fractionated into nuclear and cytosolic fractions using the Nuclear/Cytosol fractionation kit (BioVision), separated by electrophoresis in SDS-PAGE gels and transferred to Amersham Hybond-P PVDF Membranes. Membranes were probed with either anti-NF-κB p65 rabbit monoclonal primary antibody [E379] Abcam # ab32536, anti-TATA binding protein (TBP) mouse antibody (1TBP18), or anti-beta Tubulin rabbit antibody [NB600-936]. After washing, membranes were incubated with either goat anti-rabbit IgG H&L (HRP) (ab6721), or rabbit anti-mouse IgG H&L (HRP) (ab6728) secondary antibodies. Membranes were developed using the Immobilon Western chemiluminescent HRP substrate kit. Protein bands were normalized to either the beta Tubulin or TBP bands and quantified using ImageJ software.

[26] = system: NCI-H226; assay: NCI-60 cytotoxicity screen; type: cell-based
[27] = system: HBC-5; assay: JFCR-39 cytotoxicity screen; type: cell-based
[28] = system: OVCAR-3; assay: cells; conditions: Homo sapiens, OVCAR-3, read-out: mean log10 of the GI50 values (converted)
[29] = Homo sapiens, Fig 7, read-out: mean log10 of the GI50 values (converted)
[30] = Homo sapiens, five-dose, read-out: GI50
[31] = Homo sapiens, five-dose, read-out: LC50 (the source's name)
[32] = Homo sapiens, read-out: LC50 (the source's name)

O=C1c2ccccc2C(=O)c2c1ccc1nsnc21 [NSC745885, anthra[1,2-c][1,2,5]thiadiazole-6,11-dione]
GI50 [1, 29]: 2 µM
GI50 [1, 30]: 1.66 µM
CC50 [1, 31]: 5.96 µM
TGI ([1]; five-dose): 3.15 µM
TGI [2]: 3.5 µM
GI50 ([2]; Homo sapiens): 2 µM
CC50 [2, 32]: 6.1 µM
GI50 [3, 29]: 2.04 µM
GI50 [3, 30]: 1.91 µM
CC50 [3, 31]: 8.84 µM
TGI ([3]; five-dose): 4.11 µM
GI50 [4, 29]: 2.34 µM
GI50 [4, 30]: 1.93 µM
CC50 [4, 31]: > 100 µM
TGI ([4]; five-dose): 5.40 µM
TGI [5]: 13.0 µM
GI50 ([5]; Homo sapiens): 3.4 µM
CC50 [5, 32]: 67 µM
TGI [6]: 2.9 µM
GI50 ([6]; Homo sapiens): 1.1 µM
CC50 [6, 32]: 8 µM
GI50 [7, 29]: 4.27 µM
GI50 [7, 30]: 1.85 µM
CC50 [7, 31]: 6.18 µM
TGI ([7]; five-dose): 3.38 µM
GI50 [8, 29]: 2.29 µM
GI50 [8, 30]: 2.15 µM
CC50 [8, 31]: > 100 µM
TGI ([8]; five-dose): 4.85 µM
TGI [9]: 3.3 µM
GI50 ([9]; Homo sapiens): 1.8 µM
CC50 [9, 32]: 5.9 µM
GI50 [10, 29]: 5.89 µM
LC50 (concentration causing 50% net cell kill) ([10]; Homo sapiens, five-dose): 66.6 µM
GI50 [10, 30]: 16.4 µM
TGI ([10]; five-dose): 33.1 µM
TGI [11]: 5.4 µM
GI50 ([11]; Homo sapiens, KM12): 2.3 µM
CC50 ([11]; Homo sapiens, KM12, read-out: LC50 (the source's name)): 25 µM
TGI [12]: 4.0 µM
GI50 ([12]; Homo sapiens): 1.4 µM
CC50 [12, 32]: 18 µM
GI50 [13, 29]: 1.35 µM
GI50 [13, 30]: 1.18 µM
CC50 [13, 31]: > 100 µM
TGI ([13]; five-dose): 3.46 µM
GI50 [14, 29]: 1.7 µM
GI50 [14, 30]: 2.03 µM
CC50 [14, 31]: 18.6 µM
TGI ([14]; five-dose): 5.20 µM
TGI [15]: 4.9 µM
GI50 ([15]; Homo sapiens): 2.3 µM
CC50 [15, 32]: 12 µM
TGI [16]: 2.0 µM
GI50 [17, 29]: 1.62 µM
GI50 [17, 30]: 1.74 µM
CC50 [17, 31]: 7.09 µM
TGI ([17]; five-dose): 3.51 µM
TGI [18]: 3.6 µM
GI50 ([18]; Homo sapiens): 1.9 µM
CC50 [18, 32]: 6.6 µM
TGI [19]: 4.2 µM
GI50 ([19]; Homo sapiens): 0.86 µM
CC50 [19, 32]: > 100 µM
GI50 [20, 29]: 3.89 µM
GI50 [20, 30]: 1.79 µM
CC50 [20, 31]: 6.84 µM
TGI ([20]; five-dose): 3.50 µM
GI50 ([21]; Homo sapiens, U-251, Fig 7, read-out: mean log10 of the GI50 values (converted)): 2.51 µM
GI50 ([21]; Homo sapiens, U-251, five-dose, read-out: GI50): 1.61 µM
CC50 ([21]; Homo sapiens, U-251, five-dose, read-out: LC50 (the source's name)): 5.44 µM
TGI ([21]; five-dose): 2.96 µM
GI50 [22, 29]: 1.86 µM
GI50 [22, 30]: 1.61 µM
CC50 [22, 31]: 5.44 µM
TGI ([22]; five-dose): 2.96 µM
GI50 [23]: 1.82 µM
GI50 ([24]; Homo sapiens, T47D, Fig 7, read-out: mean log10 of the GI50 values (converted)): 0.724 µM
GI50 ([24]; Homo sapiens, T47D, five-dose, read-out: GI50): 1.39 µM
CC50 ([24]; Homo sapiens, T47D, five-dose, read-out: LC50 (the source's name)): 8.27 µM
TGI ([24]; five-dose): 3.39 µM
dose of almost complete inhibition of nuclear NF-κB p65 expression [25]: 2.4 µM
GI50 [26, 29]: 8.32 µM
LC50 (concentration killing 50% of cells) ([26]; Homo sapiens, five-dose): 63.7 µM
GI50 [26, 30]: 4.48 µM
TGI ([26]; five-dose): 21.6 µM
TGI [27]: 3.5 µM
GI50 ([27]; Homo sapiens, HBC5): 1.9 µM
CC50 ([27]; Homo sapiens, HBC5, read-out: LC50 (the source's name)): 6.2 µM
GI50 [28]: 1.35 µM
